pIC50: −log10 of the molar value. Like-named read-outs stand apart in the source and are kept apart here.
What was measured:
Type in all cases: biochemical
HCPTP-A = molecular target: T1, HCPTP-A (Homo sapiens, UniProt P24666); assay: pNPP phosphatase inhibition assay, HCPTP-A
T1 sequence (P24666 1-158): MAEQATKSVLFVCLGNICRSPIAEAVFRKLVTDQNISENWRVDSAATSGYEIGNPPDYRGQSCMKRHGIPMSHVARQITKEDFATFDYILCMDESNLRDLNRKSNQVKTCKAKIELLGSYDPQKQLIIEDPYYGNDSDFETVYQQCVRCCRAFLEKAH

HCPTP-B = molecular target: T2, HCPTP-B (Homo sapiens, UniProt P24666); assay: pNPP phosphatase inhibition assay, HCPTP-B; conditions: for inhibition at 100 µM: pH 5, read-out: inhibition of HCPTP-B activity
T2 sequence (P24666 1-158 isoform P24666-2): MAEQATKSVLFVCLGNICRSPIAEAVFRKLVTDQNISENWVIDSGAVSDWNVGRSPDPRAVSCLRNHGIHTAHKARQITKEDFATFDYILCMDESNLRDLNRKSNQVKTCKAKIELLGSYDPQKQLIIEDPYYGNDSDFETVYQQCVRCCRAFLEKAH

HCPTP [1] = molecular target: T3, HCPTP (Homo sapiens, UniProt P24666); assay: single concentration screen repeated with 0.01% Triton X-100; conditions: 0.01% Triton X-100 and reducing agents
T3 sequence (P24666 1-158): T1 sequence (P24666 1-158)

HCPTP [2] = molecular target: T4, HCPTP (Homo sapiens, UniProt P24666); assay: pNPP single concentration screen, isoform not specified; conditions: pH 5, read-out: elevation of the activity of HCPTP
T4 sequence (P24666 2-158): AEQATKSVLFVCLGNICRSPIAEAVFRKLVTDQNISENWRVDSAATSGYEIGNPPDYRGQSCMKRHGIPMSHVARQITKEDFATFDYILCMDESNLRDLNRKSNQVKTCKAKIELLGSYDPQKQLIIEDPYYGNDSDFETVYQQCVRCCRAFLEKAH

[3] = pH 7, read-out: reduction of the activity of HCPTP-A, 100 μM compound, pH 7
[4] = pH 5, read-out: inhibition of HCPTP-A activity, 100 μM compound, pH 5
[5] = IC50 HCPTP-A pH 5, pH 5 (Table II)
[6] = IC50 HCPTP-A, pH 5 (Table I), pNPP substrate, 25 °C
[7] = pH 5, read-out: inhibition of HCPTP-A activity
[8] = pH 7, read-out: reduction of the activity of HCPTP-A
[9] = IC50 HCPTP-B, pH 5 (Table I), pNPP substrate, 25 °C
[10] = IC50 HCPTP-A pH 5 (dash class), pH 5 (Table II), dash entries
[11] = read-out: IC50 HCPTP-A pH 7, pH 7 (Table II)

N=C(N)NC(=N)Nc1ccc(S(=O)(=O)O)cc1 [Compound 17580]
inhibition at 100 µM (HCPTP-A; [3]): ≥ 10%

C[C@]12CC[C@@H]3c4ccc(OP(=O)(O)O)cc4CC[C@H]3[C@@H]1CCC2=O [Compound 18320]
inhibition at 100 µM (HCPTP-A; [3]): ≥ 10%

N=C(Cc1ccccc1)NCC(=O)O [Compound 27895]
inhibition at 100 µM (HCPTP-A; [4]): ≥ 10% | inhibition at 100 µM (HCPTP-A; [3]): ≥ 10% | inhibition at 100 µM (HCPTP-B): ≥ 10%

Cc1ncc(OP(=O)(O)O)c(C)c1O [Compound 29870]
inhibition at 100 µM (HCPTP-A; [4]): ≥ 10% | inhibition at 100 µM (HCPTP-B): ≥ 10%

NC(Cc1ccccc1)P(=O)(O)O (stereo not shown) [Compound 30080]
pIC50 (HCPTP-A; [5]): 3.65 | pIC50 (HCPTP-A; IC50 HCPTP-A pH 7 (dash class), pH 7 (Table II), dash entries): < 4.00 | pIC50 (HCPTP-A; [6]): 3.65 | inhibition at 100 µM (HCPTP-A; [7]): ≥ 10% | inhibition at 100 µM (HCPTP-A; [8]): ≥ 10% | pIC50 (HCPTP-B; [9]): 3.86 | inhibition at 100 µM (HCPTP-B): ≥ 10%

CCc1ccc(CCC(=O)O)nc1 [Compound 35989]
reduction of the activity of HCPTP-A (HCPTP-A; 100 μM compound, pH 7): at least 10%

Cn1c(=O)c2[nH]c(CCC(=O)O)nc2n(C)c1=O [Compound 36534]
inhibition at 100 µM (HCPTP-A; [3]): ≥ 10%

O=S(=O)(O)c1ccc2c(/N=N/c3c(O)ccc4ccccc34)cccc2c1 [Compound 45576]
pIC50 (HCPTP-A; [5]): 5.26 | pIC50 (HCPTP-A; [6]): 5.26 | inhibition at 100 µM (HCPTP-A; [4]): ≥ 10% | pIC50 (HCPTP-B; [9]): 5.41 | inhibition at 100 µM (HCPTP-B): ≥ 10% | level of inhibition in the presence of detergent (HCPTP [1]): maintained an approximately constant level of inhibition

NC(Cc1c[nH]c2ccc([N+](=O)[O-])cc12)C(=O)O (stereo not shown) [Compound 58612]
inhibition at 100 µM (HCPTP-A; [3]): ≥ 10%

NC(Cc1c[nH]c2cc([N+](=O)[O-])ccc12)C(=O)O (stereo not shown) [Compound 65763]
pIC50 (HCPTP-A; [10]): < 4.00 | pIC50 (HCPTP-A; [11]): 4.29 | activation at 100 µM (HCPTP [2]): ≥ 10%

O=C(O)/C(Cc1ccnc2ccccc12)=N/O [Compound 85359]
pIC50 (HCPTP-A; [10]): < 4.00 | inhibition at 100 µM (HCPTP-A; [4]): ≥ 10% | pIC50 (HCPTP-A; [11]): 4.14 | inhibition at 100 µM (HCPTP-B): ≥ 10%

CC12CC(=O)C3C(CCC4=CC(=O)CCC43C)C1CC=C2CC(=O)O (stereo not shown) [Compound 86008]
inhibition at 100 µM (HCPTP-A; [3]): ≥ 10%

CC1OC(OC2C(O)C(O)C(O)C(O)C2O)C(N)CC1NC(=N)C(=O)O (stereo not shown) [Compound 100858]
inhibition at 100 µM (HCPTP-A; [3]): ≥ 10%

CC(=O)Nc1ccc(-c2ccc3[nH]c(=O)cc(C)c3c2)cc1 [Compound 109816]
inhibition at 100 µM (HCPTP-A; [3]): ≥ 10% | activation at 100 µM (HCPTP [2]): ≥ 10%

C[C@]12CC[C@@H]3c4ccc(O)cc4CC[C@H]3[C@@H]1C/C(=N\O)[C@@H]2O [Compound 112737]
inhibition at 100 µM (HCPTP-A; [3]): ≥ 10%

CC12CCC(=O)C=C1CCC1C2CCC2(C)C(C(=O)Cn3cnc4c(=S)nc[nH]c43)CCC12 (stereo not shown) [Compound 114792]
inhibition at 100 µM (HCPTP-A; [4]): ≥ 10% | inhibition at 100 µM (HCPTP-B): ≥ 10%

Nc1nc(N)c(N=Nc2ccc([As](=O)(O)O)c(O)c2)c(N)n1 [Compound 117281]
inhibition at 100 µM (HCPTP-A; [8]): ≥ 10%

O=C1C2=C(CC=CC2)C(=O)c2c(Nc3ccc(S(=O)(=O)O)cc3)ccc(Nc3ccccc3)c21 [Compound 128437]
pIC50 (HCPTP-A; [5]): 5.26 | pIC50 (HCPTP-A; [6]): 5.26 | inhibition at 100 µM (HCPTP-A; [4]): ≥ 10% | pIC50 (HCPTP-A; [11]): 5.44 | pIC50 (HCPTP-B; [9]): 5.35 | inhibition at 100 µM (HCPTP-B): ≥ 10% | level of inhibition in the presence of detergent (HCPTP [1]): maintained an approximately constant level of inhibition

CC[C@H]1CN2CCc3cc(OC)c(OC)cc3C2C[C@@H]1C[C@@H]1NCCc2c1[nH]c1ccc(O)cc21 (stereo partly shown) [Compound 131547]
inhibition at 100 µM (HCPTP-A; [8]): ≥ 10%

NC(c1ccccc1)P(=O)(O)O (stereo not shown) [Compound 133811]
inhibition at 100 µM (HCPTP-A; [4]): ≥ 10% | inhibition at 100 µM (HCPTP-B): ≥ 10%

Nc1cncc(Nc2ccc(S(N)(=O)=O)cc2)n1 [Compound 135784]
inhibition at 100 µM (HCPTP-A; [3]): ≥ 10%

O=C(O)CC1NCc2cc3ccccc3nc21 (stereo not shown) [Compound 141566]
pIC50 (HCPTP-A; [10]): < 4.00 | pIC50 (HCPTP-A; IC50 HCPTP-A pH 7, pH 7 (Table II)): 5.32 | inhibition at 100 µM (HCPTP-A; [4]): ≥ 10% | inhibition at 100 µM (HCPTP-B): ≥ 10%

Oc1cc(O)c2c(c1)OC(c1ccc(O)c(O)c1)C(O)C2c1c(O)cc(O)c2c1OC(c1ccc(O)c(O)c1)C(O)C2 (stereo not shown) [Compound 143099]
activation at 100 µM (HCPTP [2]): ≥ 10%

CC1CN(CC(N)C(=O)O)C(=O)NC1=O (stereo not shown) [Compound 151831]
inhibition at 100 µM (HCPTP-A; [3]): ≥ 10%

NC(Cc1cc(Br)c(O)c(Br)c1)C(=O)O (stereo not shown) [Compound 210786]
pIC50 (HCPTP-A; [10]): < 4.00 | pIC50 (HCPTP-A; [11]): 5.34 | activation at 100 µM (HCPTP [2]): ≥ 10%

O=C(O)C1CSC2(CCN(c3ccccc3)CC2)N1 (stereo not shown) [Compound 319095]
pIC50 (HCPTP-A; [10]): < 4.00 | pIC50 (HCPTP-A; [11]): 5.40 | level of inhibition in the presence of detergent (HCPTP [1]): maintained an approximately constant level of inhibition

NC1CCCCC1P(=O)(O)O (stereo not shown) [Compound 320308]
inhibition at 100 µM (HCPTP-A; [7]): ≥ 10% | inhibition at 100 µM (HCPTP-B): ≥ 10%

C[S+](=N)([O-])CCP(=O)(O)O (stereo not shown) [Compound 359098]
inhibition at 100 µM (HCPTP-A; [8]): ≥ 10%

Nc1nc(-c2ccc3ccccc3c2)cc(-c2cc(-c3ccc4ccccc4c3)nc(N)n2)n1 [Compound 371878]
inhibition at 100 µM (HCPTP-A; [3]): ≥ 10%

NC(Cc1ccc2oc3cc(=O)c4ccccc4c-3nc2c1)C(=O)O (stereo not shown) [Compound 643735]
inhibition at 100 µM (HCPTP-A; [4]): ≥ 10% | inhibition at 100 µM (HCPTP-B): ≥ 10%

NC(c1c[nH]c2ccccc12)P(=O)(O)O (stereo not shown) [Compound 669581]
inhibition at 100 µM (HCPTP-A; [3]): ≥ 10%

[O]=[V]([OH])([OH])[OH] [orthovanadate, reference compound]
pIC50 (HCPTP-A; read-out: IC50 HCPTP-A, general phosphatase inhibitor, pH not stated): 4.96 | pIC50 (HCPTP-B; read-out: IC50 HCPTP-B, general phosphatase inhibitor, pH not stated): 4.21

Reference: PMC6031871 (Bioorganic & medicinal chemistry, 2010)
